Publication PMC5007552, “The hVps34‐SGK3 pathway alleviates sustained PI3K/Akt inhibition by stimulating mTORC1 and tumour growth” (The EMBO Journal, 2016)

Experiments:
BT-474 xenograft tumours = assay: Cleaved caspase-3 immunohistochemistry of xenograft tumours; format: in vivo, mice; details: end of treatment, 4 h after last dosage
Experimental: Figure 8 Dual treatment with Akt and SGK inhibitors reduces tumour growth in BT‐474 xenograft model • BT‐474 cells were treated for the indicated times with 0.3 μM MK‐2206. The cell lysates were analysed by immunoblot using the indicated antibodies. • BT‐474c cells were treated with inhibitors as indicated either as monotherapy or in combination and cell confluency measured on the Incucyte ZOOM every 4 h for up to 4 weeks. • BT‐474 cells were injected subcutaneously into athymic Foxn1 ^nu nude mice. […] The tumour volume was measured twice a week. Tumour growth is represented as the fold change mean ± SEM. • All mice were weighed at the end of the treatments. […] Apoptotic cells were counted in 25 fields per condition (left panel) and quantified as clCasp3‐positive cells/field (right panel). […] Six different tumours were analysed from each treatment group and each line represents one tumour sample. […]
Experiments involving mice were in accordance with Institutional Guidelines of Memorial Sloan Kettering Cancer Center (Protocol number 12‐10‐019). […] When tumours reached a volume of ~150 mm^3, mice were randomised, treated, and tumours were measured twice a week. Tumour volume was determined using the following formula: (length × width^2) ÷ 2. […]

S6K1 [1] = assay: Immunoprecipitated S6K1 kinase activity (Crosstide) from treated ZR-75-1 cells; format: cell-based, human; details: 1 μM MK-2206, 1 h
Experimental: SGK3 (upper panel) and S6K1 (middle panel) were immunoprecipitated and subjected to in vitro kinase assay by measuring phosphorylation of the Crosstide substrate peptide in the presence of 0.1 mM [γ‐^32P]ATP in a 30 min 30°C reaction. Kinase reactions are presented as means ± SD for triplicate reaction. Immunoprecipitates (IP) were also analysed by immunoblot with the indicated antibodies. The cell lysates were also analysed by immunoblot using the indicated antibodies (lower panel).
Briefly, SGK3, Akt and S6K1 were immunoprecipitated from 1 mg ZR‐75‐1 cell lysate. Immunoprecipitates were washed in sequence with lysis buffer containing high salt concentration (500 mM NaCl), lysis buffer and Buffer A (50 mM Tris pH 7.5, 0.1 mM EGTA). Kinase activity was assessed by measuring [γ‐^32P]ATP incorporation into Crosstide substrate peptide [[…]]. The reactions were carried in 40 μl total volume containing 0.1 mM [γ‐^32P]ATP (400–1,000 cpm/pmol), 10 mM magnesium acetate and 30 μM Crosstide peptide. Reactions were terminated by adding 10 μl 0.1 M EDTA and spotting 40 μl of the resulting reaction mix on P81 paper, which were immediately immersed into 50 mM orthophosphoric acid. Papers were washed at least five times in 50 mM orthophosphoric acid, rinsed in acetone and air‐dried. Radioactivity was quantified by Cerenkov counting. […]

S6K1 [2] = molecular target: S6K1 (Homo sapiens, UniProt P23443); assay: IC50 on recombinant S6K1 (p70S6K); format: biochemical; details: Fig 5B / Appendix Fig S1B, recombinant kinase, unit inferred
Sequence of S6K1 (Homo sapiens, UniProt P23443) (P23443 whole entry): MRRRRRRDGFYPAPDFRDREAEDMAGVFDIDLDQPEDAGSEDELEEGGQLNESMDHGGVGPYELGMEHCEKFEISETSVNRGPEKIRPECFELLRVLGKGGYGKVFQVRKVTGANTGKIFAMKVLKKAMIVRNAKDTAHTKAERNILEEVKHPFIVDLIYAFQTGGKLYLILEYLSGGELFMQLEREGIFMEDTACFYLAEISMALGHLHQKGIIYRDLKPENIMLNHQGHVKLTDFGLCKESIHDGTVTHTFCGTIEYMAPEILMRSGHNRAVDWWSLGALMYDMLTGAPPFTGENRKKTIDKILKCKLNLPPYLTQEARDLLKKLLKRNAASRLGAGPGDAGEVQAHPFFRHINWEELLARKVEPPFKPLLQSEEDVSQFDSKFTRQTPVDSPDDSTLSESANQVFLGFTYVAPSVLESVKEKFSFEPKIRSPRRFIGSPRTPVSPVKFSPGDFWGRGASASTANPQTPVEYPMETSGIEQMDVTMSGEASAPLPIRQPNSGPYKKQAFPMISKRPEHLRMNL
Experimental: (§1) The result for each kinase is presented as a mean kinase activity of the reaction taken in triplicate relative to a control reaction where the inhibitors were omitted. […] SGK3 was immunoprecipitated from cell lysates and subjected to in vitro kinase assay by measuring phosphorylation of the Crosstide substrate peptide in the presence of 0.1 mM [γ‐^32P]ATP in a 30 min 30°C reaction (upper panel). Kinase reactions are presented as means ± SD for triplicate reaction.
(§2) Appendix Figure S1. […] (A) Chemical struc tures of
(§3) Sano/f_i-14g, -14i and -14n compounds. (B) IC50 values of inhibitors on indicated recombinant k inases. […]

MLK1 = MLK1 (Homo sapiens, UniProt P80192); assay: IC50 on recombinant MLK1; format: biochemical; details: Fig 5B / Appendix Fig S1B, recombinant kinase, unit inferred
Sequence of MLK1 (P80192 whole entry, species assumed): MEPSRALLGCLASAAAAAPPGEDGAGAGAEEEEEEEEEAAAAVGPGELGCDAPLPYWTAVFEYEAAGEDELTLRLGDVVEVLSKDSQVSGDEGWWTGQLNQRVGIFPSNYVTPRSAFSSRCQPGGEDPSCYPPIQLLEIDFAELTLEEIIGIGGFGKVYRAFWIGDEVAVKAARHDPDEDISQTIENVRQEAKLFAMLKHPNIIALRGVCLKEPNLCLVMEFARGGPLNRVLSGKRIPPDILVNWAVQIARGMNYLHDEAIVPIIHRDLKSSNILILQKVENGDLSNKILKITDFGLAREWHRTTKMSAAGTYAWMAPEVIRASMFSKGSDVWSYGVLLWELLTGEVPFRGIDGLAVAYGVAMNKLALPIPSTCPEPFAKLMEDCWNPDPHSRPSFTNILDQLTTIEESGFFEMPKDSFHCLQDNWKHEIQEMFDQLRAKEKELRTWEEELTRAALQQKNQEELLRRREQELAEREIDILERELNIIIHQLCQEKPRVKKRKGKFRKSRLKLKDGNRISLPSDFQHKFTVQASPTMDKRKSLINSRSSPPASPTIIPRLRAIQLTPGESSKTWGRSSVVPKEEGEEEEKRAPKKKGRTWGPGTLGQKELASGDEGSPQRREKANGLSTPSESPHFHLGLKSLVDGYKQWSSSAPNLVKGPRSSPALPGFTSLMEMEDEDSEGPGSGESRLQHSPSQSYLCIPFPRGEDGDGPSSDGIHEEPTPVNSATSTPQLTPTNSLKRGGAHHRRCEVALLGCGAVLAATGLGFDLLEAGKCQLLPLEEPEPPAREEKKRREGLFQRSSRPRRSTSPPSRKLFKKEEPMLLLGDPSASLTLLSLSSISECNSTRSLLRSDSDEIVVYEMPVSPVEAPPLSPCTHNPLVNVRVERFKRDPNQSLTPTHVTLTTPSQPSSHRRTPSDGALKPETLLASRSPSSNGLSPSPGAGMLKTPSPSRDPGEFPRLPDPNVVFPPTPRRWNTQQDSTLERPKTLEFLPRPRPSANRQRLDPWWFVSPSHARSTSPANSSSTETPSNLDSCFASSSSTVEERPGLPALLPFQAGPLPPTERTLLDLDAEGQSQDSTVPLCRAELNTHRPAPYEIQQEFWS
Experimental: as §1, §2, §3

SGK3 = molecular target: T1, SGK3 (Homo sapiens, UniProt Q96BR1); assay: Immunoprecipitated endogenous SGK3 kinase activity (Crosstide) and SGK3 phosphorylation from treated cells; format: cell-based; design: we immunoprecipitated endogenous SGK3 and assessed protein kinase activity; endogenous in cells; host or cells: ZR-75-1; details: 1 h, ZR-75-1 cells
T1 sequence (Q96BR1 1-496): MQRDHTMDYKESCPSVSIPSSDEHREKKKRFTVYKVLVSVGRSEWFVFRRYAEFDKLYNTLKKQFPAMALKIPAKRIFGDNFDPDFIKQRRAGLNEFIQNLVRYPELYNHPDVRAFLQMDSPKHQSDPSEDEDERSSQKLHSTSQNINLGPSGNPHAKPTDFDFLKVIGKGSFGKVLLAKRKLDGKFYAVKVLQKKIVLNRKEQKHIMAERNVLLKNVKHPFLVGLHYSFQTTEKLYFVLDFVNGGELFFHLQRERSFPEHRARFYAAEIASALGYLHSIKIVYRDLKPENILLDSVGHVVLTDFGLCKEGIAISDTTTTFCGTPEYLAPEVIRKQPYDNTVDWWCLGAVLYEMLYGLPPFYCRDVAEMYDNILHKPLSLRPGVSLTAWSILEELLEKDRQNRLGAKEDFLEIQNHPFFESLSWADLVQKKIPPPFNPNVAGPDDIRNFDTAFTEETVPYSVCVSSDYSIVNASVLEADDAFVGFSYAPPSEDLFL
Experimental: Briefly, SGK3, Akt and S6K1 were immunoprecipitated from 1 mg ZR‐75‐1 cell lysate. Immunoprecipitates were washed in sequence with lysis buffer containing high salt concentration (500 mM NaCl), lysis buffer and Buffer A (50 mM Tris pH 7.5, 0.1 mM EGTA). Kinase activity was assessed by measuring [γ‐^32P]ATP incorporation into Crosstide substrate peptide [[…]]. The reactions were carried in 40 μl total volume containing 0.1 mM [γ‐^32P]ATP (400–1,000 cpm/pmol), 10 mM magnesium acetate and 30 μM Crosstide peptide. Reactions were terminated by adding 10 μl 0.1 M EDTA and spotting 40 μl of the resulting reaction mix on P81 paper, which were immediately immersed into 50 mM orthophosphoric acid. Papers were washed at least five times in 50 mM orthophosphoric acid, rinsed in acetone and air‐dried. Radioactivity was quantified by Cerenkov counting. One unit of enzyme activity was defined as amount of enzyme that catalyses incorporation of 1 nmol of [γ‐^32P]ATP into the substrate over 1 min.

IC50 (S6K1 [2]) [nM] | IC50 (MLK1) [nM] | reduction of SGK3 activity and phosphorylation (SGK3; 0.1 μM 14h) | SGK3 activity and phosphorylation (SGK3; 1 μM 14h) | SMILES | number of apoptotic (cleaved caspase-3 positive) cells in tumours (BT-474 xenograft tumours) | reduction of S6K1 activity (S6K1 [1])
 |  |  |  | NC1(c2ccc(-c3nc4ccn5c(=O)[nH]nc5c4cc3-c3ccccc3)cc2)CCC1 [MK-2206] | increased number of apoptotic cells | ~ 10 fold
76 | 215 | ~ 80% | undetectable | Nc1n[nH]c2nc(-c3ccc(NS(=O)(=O)c4cc(Cl)ccc4Cl)cc3)cnc12 [14h] |  | 
